Values belong to the molecule of their own block, whether it stands above or below them. Activity calls are given as the source filed them.
What was measured:
[1] = molecular target: T1, Aspartyl aminopeptidase (Plasmodium falciparum 3D7, UniProt Q8I2J3)
T1 sequence (Q8I2J3 whole entry): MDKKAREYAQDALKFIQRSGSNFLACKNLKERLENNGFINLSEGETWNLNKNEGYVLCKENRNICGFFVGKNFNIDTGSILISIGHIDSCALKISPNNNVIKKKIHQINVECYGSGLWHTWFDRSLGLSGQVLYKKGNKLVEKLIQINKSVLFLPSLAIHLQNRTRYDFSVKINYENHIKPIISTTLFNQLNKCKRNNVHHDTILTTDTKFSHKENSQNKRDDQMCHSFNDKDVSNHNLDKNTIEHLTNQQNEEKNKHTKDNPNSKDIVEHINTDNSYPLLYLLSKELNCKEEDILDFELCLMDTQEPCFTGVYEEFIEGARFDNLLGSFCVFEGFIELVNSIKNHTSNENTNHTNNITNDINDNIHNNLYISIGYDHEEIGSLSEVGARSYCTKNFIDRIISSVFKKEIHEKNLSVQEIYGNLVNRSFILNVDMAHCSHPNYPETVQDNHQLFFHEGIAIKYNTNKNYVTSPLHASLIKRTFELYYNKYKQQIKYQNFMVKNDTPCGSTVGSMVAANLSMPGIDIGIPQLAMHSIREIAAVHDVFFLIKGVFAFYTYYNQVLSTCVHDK

[2] = viability loss in THP-1 monocytes – THP-1 cells, cytotoxicity control for Vif-APOBEC3G degradation inhibitor project, dose response (AID 1117359); assay type: functional; details: THP-1
[3] = molecular target: FAD-linked sulfhydryl oxidase ALR (Homo sapiens, UniProt P55789); assay: ALR-catalysed DTT oxidation blockers – biochemical, H2O2 detection, luminescence, cherry-pick, dose response (AID 493248)
FAD-linked sulfhydryl oxidase ALR, sequence (P55789 whole entry): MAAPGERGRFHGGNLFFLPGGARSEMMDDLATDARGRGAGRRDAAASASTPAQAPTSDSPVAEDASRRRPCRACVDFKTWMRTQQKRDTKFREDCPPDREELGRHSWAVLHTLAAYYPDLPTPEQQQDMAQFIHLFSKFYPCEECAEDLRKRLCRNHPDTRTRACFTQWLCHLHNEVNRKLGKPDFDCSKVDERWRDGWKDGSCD

[4] = molecular target: Procathepsin L (Homo sapiens, UniProt P07711)
Procathepsin L, sequence (P07711 whole entry): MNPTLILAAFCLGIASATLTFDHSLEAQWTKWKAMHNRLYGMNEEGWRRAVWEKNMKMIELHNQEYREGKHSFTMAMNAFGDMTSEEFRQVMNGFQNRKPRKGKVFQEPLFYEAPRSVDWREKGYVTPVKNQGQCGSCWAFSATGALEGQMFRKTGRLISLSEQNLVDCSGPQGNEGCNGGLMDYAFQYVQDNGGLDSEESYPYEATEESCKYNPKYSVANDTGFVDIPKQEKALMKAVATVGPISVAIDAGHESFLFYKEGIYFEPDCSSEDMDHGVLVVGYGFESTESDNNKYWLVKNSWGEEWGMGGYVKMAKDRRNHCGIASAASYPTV

[5] = molecular target: T2, Alkaline phosphatase, tissue-nonspecific isozyme (Homo sapiens, UniProt P05186); assay: activation of tissue-nonspecific alkaline phosphatase – biochemical, TNAP isozyme, mouse IAP uHTS hits, selectivity assay for mouse IAP activator project, dose response (AID 488880); assay type: functional
T2 sequence (P05186 whole entry): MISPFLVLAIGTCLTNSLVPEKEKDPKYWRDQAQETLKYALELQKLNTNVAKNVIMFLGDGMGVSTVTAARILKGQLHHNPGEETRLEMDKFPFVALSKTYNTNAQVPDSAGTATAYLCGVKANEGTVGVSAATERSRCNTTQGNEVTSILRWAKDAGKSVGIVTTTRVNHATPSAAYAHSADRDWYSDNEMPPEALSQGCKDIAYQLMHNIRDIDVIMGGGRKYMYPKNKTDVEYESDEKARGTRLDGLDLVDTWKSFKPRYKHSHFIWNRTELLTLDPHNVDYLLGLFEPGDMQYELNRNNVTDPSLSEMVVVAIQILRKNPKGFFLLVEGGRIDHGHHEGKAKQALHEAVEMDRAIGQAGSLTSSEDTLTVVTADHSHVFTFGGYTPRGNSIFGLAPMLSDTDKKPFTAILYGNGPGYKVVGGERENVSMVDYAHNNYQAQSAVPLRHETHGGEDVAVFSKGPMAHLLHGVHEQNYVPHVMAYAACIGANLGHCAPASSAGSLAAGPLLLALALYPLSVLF

[6] = molecular target: Intestinal-type alkaline phosphatase (Homo sapiens, UniProt P09923); assay: activation of human intestinal alkaline phosphatase – biochemical, dose response (AID 488873); assay type: functional
Intestinal-type alkaline phosphatase (Homo sapiens, UniProt P09923), sequence (P09923 whole entry): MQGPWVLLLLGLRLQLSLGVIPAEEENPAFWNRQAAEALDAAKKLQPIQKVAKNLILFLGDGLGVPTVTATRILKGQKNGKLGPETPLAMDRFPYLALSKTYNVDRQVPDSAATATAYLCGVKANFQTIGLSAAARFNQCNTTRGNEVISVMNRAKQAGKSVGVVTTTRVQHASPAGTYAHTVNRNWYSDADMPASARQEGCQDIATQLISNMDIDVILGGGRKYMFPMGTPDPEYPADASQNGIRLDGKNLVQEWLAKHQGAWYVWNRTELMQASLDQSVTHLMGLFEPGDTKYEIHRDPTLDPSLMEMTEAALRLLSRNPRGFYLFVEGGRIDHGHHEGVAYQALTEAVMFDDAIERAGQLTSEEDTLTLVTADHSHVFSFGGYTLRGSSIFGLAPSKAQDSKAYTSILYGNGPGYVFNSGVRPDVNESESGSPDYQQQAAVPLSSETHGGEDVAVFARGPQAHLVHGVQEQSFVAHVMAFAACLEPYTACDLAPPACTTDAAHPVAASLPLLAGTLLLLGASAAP

[7] = molecular target: Albumin (Bos taurus, UniProt P02769); assay: Counterscreen for inhibitors of T-cell receptor (TCR)-CD3 interaction: Fluorescence-based biochemical high throughput dose response assay to identify inhibitors of T-cell receptor (TCR)-CD3 interaction using a TAMRA-labeled BSA probe.; assay type: functional
Albumin, sequence (P02769 whole entry): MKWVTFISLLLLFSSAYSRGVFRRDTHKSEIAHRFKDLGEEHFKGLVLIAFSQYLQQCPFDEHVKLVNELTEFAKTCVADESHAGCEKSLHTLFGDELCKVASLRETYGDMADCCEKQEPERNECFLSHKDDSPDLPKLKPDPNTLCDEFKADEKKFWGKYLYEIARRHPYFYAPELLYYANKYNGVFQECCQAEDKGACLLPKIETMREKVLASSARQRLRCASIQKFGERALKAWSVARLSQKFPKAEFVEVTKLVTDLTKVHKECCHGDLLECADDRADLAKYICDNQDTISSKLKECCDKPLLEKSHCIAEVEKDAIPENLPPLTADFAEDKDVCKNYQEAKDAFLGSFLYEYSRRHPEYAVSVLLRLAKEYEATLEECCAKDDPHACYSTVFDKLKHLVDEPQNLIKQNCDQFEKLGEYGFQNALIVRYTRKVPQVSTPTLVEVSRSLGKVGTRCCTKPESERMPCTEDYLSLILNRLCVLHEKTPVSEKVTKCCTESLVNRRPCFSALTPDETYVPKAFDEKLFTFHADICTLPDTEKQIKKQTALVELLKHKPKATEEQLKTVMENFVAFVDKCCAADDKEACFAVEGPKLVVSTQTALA

[8] = molecular target: Large T antigen (Simian virus 40, UniProt P03070); assay type: functional, Betapolyomavirus macacae;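 also: Confirmatory-stage PubChem screen for compounds that inhibit SV40 T antigen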
Large T antigen, sequence (P03070 whole entry): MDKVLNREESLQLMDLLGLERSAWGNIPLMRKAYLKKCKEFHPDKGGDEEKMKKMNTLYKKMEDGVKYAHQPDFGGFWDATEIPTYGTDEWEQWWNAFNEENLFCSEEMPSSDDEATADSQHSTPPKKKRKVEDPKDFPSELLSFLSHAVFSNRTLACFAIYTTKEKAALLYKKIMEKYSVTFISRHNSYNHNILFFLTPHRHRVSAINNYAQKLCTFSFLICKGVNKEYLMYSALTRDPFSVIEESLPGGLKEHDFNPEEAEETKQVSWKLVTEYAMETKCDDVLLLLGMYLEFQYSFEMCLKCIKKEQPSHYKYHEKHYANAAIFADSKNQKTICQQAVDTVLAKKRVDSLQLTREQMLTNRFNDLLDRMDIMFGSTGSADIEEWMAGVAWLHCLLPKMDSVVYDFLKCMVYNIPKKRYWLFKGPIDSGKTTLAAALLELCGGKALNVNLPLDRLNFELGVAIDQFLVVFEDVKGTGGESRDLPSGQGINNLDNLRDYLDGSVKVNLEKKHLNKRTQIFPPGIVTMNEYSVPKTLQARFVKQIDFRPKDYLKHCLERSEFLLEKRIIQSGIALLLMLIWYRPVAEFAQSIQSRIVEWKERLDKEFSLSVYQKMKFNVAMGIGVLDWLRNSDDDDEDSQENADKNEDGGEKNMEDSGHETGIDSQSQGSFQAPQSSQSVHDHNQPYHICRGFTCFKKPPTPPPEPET

[9] = molecular target: Intestinal-type alkaline phosphatase (Mus musculus, UniProt P24822); assay: mouse intestinal alkaline phosphatase activators, dose response, biochemical, luminescence, uHTS hits (AID 488783); assay type: functional
Intestinal-type alkaline phosphatase (Mus musculus, UniProt P24822), sequence (P24822 whole entry): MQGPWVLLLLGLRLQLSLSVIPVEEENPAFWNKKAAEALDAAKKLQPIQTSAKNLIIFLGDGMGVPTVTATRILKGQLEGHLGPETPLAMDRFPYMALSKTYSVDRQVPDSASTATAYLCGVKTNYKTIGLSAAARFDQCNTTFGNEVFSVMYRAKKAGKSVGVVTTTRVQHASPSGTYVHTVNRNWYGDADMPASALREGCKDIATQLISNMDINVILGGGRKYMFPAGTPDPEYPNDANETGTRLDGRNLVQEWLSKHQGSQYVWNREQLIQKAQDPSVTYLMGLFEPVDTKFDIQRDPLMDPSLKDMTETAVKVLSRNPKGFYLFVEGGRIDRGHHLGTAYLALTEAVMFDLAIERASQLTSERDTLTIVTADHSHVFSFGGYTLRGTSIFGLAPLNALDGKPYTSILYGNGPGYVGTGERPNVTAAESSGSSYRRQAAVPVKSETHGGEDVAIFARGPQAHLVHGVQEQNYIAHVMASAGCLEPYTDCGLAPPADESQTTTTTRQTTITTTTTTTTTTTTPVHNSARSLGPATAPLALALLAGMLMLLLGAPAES

[10] = molecular target: Wee1-like protein kinase (Homo sapiens, UniProt P30291); assay: Dose Response Cell-based Assay for Inhibitors of Wee1 Degradation. [Related pubchem assays: 1410, 1321 ]; assay type: functional
Wee1-like protein kinase, sequence (P30291 whole entry): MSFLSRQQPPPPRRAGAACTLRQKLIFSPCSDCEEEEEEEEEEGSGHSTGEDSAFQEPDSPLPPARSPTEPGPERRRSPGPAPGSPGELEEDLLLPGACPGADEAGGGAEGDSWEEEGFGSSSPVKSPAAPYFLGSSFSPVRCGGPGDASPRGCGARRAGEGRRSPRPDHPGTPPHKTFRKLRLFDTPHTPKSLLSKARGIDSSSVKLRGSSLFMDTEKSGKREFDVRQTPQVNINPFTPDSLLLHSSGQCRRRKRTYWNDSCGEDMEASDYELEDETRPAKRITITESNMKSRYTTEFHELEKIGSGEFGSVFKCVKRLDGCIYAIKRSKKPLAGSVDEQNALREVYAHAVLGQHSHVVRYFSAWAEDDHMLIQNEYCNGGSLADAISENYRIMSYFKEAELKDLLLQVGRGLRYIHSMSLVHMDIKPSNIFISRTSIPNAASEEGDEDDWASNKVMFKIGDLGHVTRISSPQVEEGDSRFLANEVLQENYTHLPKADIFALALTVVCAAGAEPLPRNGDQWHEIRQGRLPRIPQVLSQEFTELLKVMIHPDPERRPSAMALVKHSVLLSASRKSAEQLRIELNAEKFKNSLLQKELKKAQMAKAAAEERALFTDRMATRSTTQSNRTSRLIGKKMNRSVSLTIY

[11] = molecular target: G2/mitotic-specific cyclin-B1 (Homo sapiens, UniProt P14635); assay: Counterscreen assay for inhibitors of Wee1 degradation: dose response cell-based assay to identify inhibitors of cyclin B degradation. [Related pubchem assays: 1410, 1321 ]; assay type: functional
G2/mitotic-specific cyclin-B1, sequence (P14635 whole entry): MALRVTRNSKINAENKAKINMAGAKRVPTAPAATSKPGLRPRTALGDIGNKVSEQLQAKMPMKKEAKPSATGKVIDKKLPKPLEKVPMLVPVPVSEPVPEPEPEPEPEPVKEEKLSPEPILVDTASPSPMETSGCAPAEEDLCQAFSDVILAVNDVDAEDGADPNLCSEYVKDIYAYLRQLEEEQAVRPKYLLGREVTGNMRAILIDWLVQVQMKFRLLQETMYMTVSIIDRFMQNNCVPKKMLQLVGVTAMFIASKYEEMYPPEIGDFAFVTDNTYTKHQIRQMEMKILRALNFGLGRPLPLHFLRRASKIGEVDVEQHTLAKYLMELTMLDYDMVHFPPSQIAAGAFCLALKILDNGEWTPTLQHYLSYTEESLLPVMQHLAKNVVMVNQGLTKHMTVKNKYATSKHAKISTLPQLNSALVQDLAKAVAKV

[12] = system: HEK293; assay: Fluorescence-based counterscreen for potentiators or agonists of NPY-Y1: cell-based high-throughput dose response assay for inhibitors of cyclic nucleotide gated ion channel (CNGC) activity. In this assay, the parental HEK293 cell line transfected with a cyclic-nucleotide gated ion channel (CNGC)-based cAMP sensor is used to measure inhibition of isoproterenol-induced CNGC …; assay type: functional; details: Homo sapiens
[13] = molecular target: T3, Neuropeptide Y receptor type 1 (Homo sapiens, UniProt P25929); assay: Fluorescence-based dose response cell-based high-throughput screening assay for agonists of NPY-Y1. [Related pubchem assays: 1697 (Screening assay (NPY-Y1 agonists).), 1359 (Screening assay (NPY-Y2 potentiators or agonists).), 1304 (Screening assay (NPY-Y1 potentiators or agonists).), 1704 (Screening assay (CNGC inhibitors).), 1791 (Summary AID.)]; assay type: functional
T3 sequence (P25929 whole entry): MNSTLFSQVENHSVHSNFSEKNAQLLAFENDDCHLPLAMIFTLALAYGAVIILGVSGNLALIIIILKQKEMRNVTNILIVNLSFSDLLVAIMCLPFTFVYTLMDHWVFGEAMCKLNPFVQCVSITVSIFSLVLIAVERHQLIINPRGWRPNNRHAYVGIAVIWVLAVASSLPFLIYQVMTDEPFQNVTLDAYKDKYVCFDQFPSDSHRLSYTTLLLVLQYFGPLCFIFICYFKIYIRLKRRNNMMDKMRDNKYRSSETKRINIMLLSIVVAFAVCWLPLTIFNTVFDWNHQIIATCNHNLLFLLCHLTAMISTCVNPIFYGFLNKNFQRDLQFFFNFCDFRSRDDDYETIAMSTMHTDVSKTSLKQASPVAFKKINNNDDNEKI

[14] = molecular target: T4, Neuropeptide Y receptor type 2 (Homo sapiens, UniProt P49146); assay: Fluorescence-based counterscreen for agonists of NPY-Y1: cell-based high-throughput dose response assay for agonists of NPY-Y2.; assay type: functional
T4 sequence (P49146 whole entry): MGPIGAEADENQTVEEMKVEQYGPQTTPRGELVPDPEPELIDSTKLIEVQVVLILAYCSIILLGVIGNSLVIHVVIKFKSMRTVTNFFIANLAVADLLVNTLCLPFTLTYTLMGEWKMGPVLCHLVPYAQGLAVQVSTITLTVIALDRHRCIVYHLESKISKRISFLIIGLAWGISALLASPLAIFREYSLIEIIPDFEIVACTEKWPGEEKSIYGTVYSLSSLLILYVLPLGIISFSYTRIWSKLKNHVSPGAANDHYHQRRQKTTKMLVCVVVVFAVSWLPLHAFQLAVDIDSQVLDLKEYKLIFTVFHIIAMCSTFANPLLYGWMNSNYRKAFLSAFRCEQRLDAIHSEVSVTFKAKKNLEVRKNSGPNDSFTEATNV

[15] = molecular target: Photoreceptor-specific nuclear receptor (Homo sapiens, UniProt Q9Y5X4); assay type: functional;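 also: potency for compounds that break the NR2E3 corepressor complex and count as activators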
Photoreceptor-specific nuclear receptor, sequence (Q9Y5X4 whole entry): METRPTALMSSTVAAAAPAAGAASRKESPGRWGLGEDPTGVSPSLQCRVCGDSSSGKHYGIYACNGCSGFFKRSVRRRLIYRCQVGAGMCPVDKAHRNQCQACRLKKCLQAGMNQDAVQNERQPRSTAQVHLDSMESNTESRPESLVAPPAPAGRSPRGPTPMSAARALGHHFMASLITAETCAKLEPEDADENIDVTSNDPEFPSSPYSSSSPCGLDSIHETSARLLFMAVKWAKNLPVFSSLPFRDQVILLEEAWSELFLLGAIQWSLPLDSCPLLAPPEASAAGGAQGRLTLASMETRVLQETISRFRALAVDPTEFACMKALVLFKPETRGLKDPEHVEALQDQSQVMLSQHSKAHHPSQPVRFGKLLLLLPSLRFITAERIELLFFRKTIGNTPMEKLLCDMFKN

[16] = molecular target: Peroxisome proliferator-activated receptor gamma/Nuclear receptor corepressor 2 (Homo sapiens, UniProt P37231+Q9Y618); assay type: functional
[17] = molecular target: Cytochrome P450 2C9 (Homo sapiens, UniProt P11712); details: Potency
Cytochrome P450 2C9, sequence (P11712 whole entry): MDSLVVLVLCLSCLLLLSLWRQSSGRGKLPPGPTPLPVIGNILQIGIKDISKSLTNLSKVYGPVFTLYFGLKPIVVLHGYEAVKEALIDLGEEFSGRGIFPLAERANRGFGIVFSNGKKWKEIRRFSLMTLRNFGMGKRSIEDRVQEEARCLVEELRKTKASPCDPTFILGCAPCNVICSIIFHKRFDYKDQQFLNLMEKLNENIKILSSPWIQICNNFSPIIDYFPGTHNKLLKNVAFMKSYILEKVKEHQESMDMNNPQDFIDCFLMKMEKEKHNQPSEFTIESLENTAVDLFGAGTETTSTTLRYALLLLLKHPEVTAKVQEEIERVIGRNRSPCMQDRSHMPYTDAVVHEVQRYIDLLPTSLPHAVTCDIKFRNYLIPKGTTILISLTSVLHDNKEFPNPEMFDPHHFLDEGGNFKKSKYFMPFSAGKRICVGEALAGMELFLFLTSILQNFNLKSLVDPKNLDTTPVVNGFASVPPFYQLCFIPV

SMILES: COc1ccccc1Oc1ccc(-c2cnc3ccccc3n2)cc1[N+](=O)[O-]
IC50 [12]: > 35.4 µM (not active)
EC50 [13]: > 35.4 µM (not active)
EC50 [14]: > 35.4 µM (not active)

SMILES: CSc1nc(O)c(C#N)c(-c2ccccc2)n1
IC50 [15]: > 39.8 µM (not active)
IC50 [16]: 5.34 µM (active)

Now from value to molecule, other results behind:

IC50 [1]: 1.75 µM (active)
AC50 [3]: 0.543 µM (active)
IC50 [4]: > 59.6 µM (not active)
EC50 [5]: 37.4 µM (active)
EC50 [6]: 27.3 µM (active)
IC50 [7]: > 94.1 µM (inactive)
IC50 [8]: 1.15 µM (active)
EC50 [9]: 18 µM (active)
SMILES: Oc1ccc(/C=N/N=C/c2ccc(O)c(O)c2)cc1O
CC50 [2]: 39.1 µM (active)

EC50 [10]: > 49.7 µM (not active)
EC50 [11]: > 49.7 µM (not active)
SMILES: Cc1cc(Cl)ccc1N=C(S)Nc1ccccn1

AC50 [17]: 5.01 µM (inconclusive)
SMILES: CC(C)(C)c1ccc(OC2C(O)COC2/C=C/C#Cc2ccccc2)cc1 (configuration not stated)

From ChEMBL document CHEMBL1201862, “PubChem BioAssay data set” (2004)
